Measured values from US8071569B2, “Oxidized heparin fractions and their use in inhibiting angiogenesis” (priority 2002, dated 2011).

Experiments:
[1] = system: Human umbilical vein endothelial cells (HUVEC); assay: Inhibition of FGF2-stimulated endothelial cell tube formation on Matrigel; format: cell-based; details: FGF2 alone 100 ng/ml, overnight
Protocol: Differentiation by endothelial cells was examined using a method developed by Grant et al. (Grant et al., In Vitro Cell Dev. Biol., 27A:327-336 (1991), which is hereby incorporated by reference in its entirety). Matrigel® matrix, phenol-red free (commercially available from Becton Dickinson, Bedford, Mass.) was thawed overnight at 4° C. Using cold pipette tips, 3.0 mg/well of Matrigel® matrix was placed in a cold twenty-four-multiwell plate (Falcon). Matrigel® matrix was allowed to polymerize during incubation at 37° C. for 30 minutes.
Human umbilical vein endothelial cells (HUVEC) were maintained at 37° C. with 5% CO2 and 95% humidity in endothelial cell growth medium with 2% fetal bovine serum (EGM). […]
Subsequently, the medium was aspirated and cells were fixed and stained using a modified HEMA-3 stain kit. Digital images of micro-titer well sections were collected using a DKC5000 3-CCD color video camera system (Toshiba America, New York, N.Y.) and analyzed using Image-Pro Plus software (Media Cybernetics, Silver Spring, Md.). The area and major axis length of stained cells having a tubular morphology was measured on the Matrigel® matrix surface (Becton Dickinson, Bedford, Pa.) counted from 5 images/well.

[2] = system: chick chorioallantoic membrane (CAM); assay: FGF2-induced neovascularization on the chick chorioallantoic membrane (CAM); format: in vivo; details: FGF2 alone (filter disk, 1 μg/mL)
Protocol: In vivo neovascularization was examined by the method previously described by Auerbach et al. (Auerbach et al., J. Dev. Biol., 41:391-394 (1974), which is hereby incorporated by reference in its entirety). Ten-day old embryos were purchased from Spafas, Inc. (Preston, Conn.) and were incubated at 37° C. with 55% relative humidity. In the dark with the help of a candling lamp, a small hole was punctured in the shell concealing the air sac with a hypodermic needle. A second hole was punctured in the shell on the broadside of the egg directly over an avascular portion of the embryonic membrane, as observed during candling. A false air sac was created beneath the second hole by the application of negative pressure to the first hole, which caused the chorioallantoic membrane (CAM) to separate from the shell. […]
CAM tissue directly beneath FGF2-saturated filter disk was resected from embryos treated 48 hours prior with test compound or control. […] Digital images of CAM sections adjacent to filters were collected using a 3-CCD color video camera system (Toshiba America, New York, N.Y.) and analyzed using Image-Pro Plus software (Media Cybernetics, Silver Spring, Md.). Table 4 contains the number of vessel branch points contained in a circular region equal to the area of a filter disk counted for each section.

Colon tumor = assay: CAM tumor implant model, colon tumor; format: in vivo, chick; details: 0.01 mg single dose over 7 days, initial implant 45 ± 5 mg, n = 8
Protocol: Ten million tumor cells were placed on the surface of each CAM and were cultured for one week. The resulting tumors were excised and cut into 50 mg fragments. These fragments were placed on additional CAMs and treated topically or systemically by intravenous injection the following day with the test agents. […] Each treatment group incorporated at least ten tumors per experiment. Tumors were then excised from the egg and tumor weights were determined for each tumor.

## FGF2: recombinant human fibroblast growth factor basic, angiogenic stimulus
[1]
  Cell Tube Formation (area, mm^2): 2.50 ± 0.28 mm^2
  Cell Tube Formation (length, mm): 79.83 ± 8.66 mm
[2]
  Average # of Branch Points: 264 + 18

## r-TFPI: r-tissue factor pathway inhibitor
Colon tumor
  Mean tumor weight (mg) ± SEM: 38 ± 8 mg
